Experimental data reported in patent US20120022057A1, “BICYCLIC COMPOUNDS AS INHIBITORS OF DIACYGLYCEROL ACYLTRANSFERASE” (Schering Corporation, priority 2009, published 2012).
pIC50: −log10 of the molar value.

Biological target: T1, human DGAT1 (Homo sapiens, UniProt O75907)
T1 construct: made in house; host or cells: Sf9 insect cells (microsomes)
T1 sequence (O75907 1-488): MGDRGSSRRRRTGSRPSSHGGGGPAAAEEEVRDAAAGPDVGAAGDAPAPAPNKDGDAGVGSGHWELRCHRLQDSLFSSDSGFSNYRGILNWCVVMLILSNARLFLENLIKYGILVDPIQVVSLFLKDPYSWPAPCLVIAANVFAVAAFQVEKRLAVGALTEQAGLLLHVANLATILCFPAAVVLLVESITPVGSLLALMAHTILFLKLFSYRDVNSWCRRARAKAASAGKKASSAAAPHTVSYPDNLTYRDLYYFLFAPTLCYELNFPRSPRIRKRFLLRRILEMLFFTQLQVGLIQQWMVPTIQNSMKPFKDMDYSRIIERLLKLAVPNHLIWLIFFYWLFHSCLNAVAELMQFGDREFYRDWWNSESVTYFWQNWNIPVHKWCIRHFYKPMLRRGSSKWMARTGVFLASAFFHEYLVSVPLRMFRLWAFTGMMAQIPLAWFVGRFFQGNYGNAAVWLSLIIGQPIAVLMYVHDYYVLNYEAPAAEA
Assay: in vitro DGAT1 inhibition assay (microsomes, [14C]-palmitoyl-CoA, wheat germ agglutinin beads)
Type: biochemical
Conditions: human DGAT1 enzyme expressed in Sf9 insect cells, 2 hours at room temperature
Method: The assay used to determine the DGAT inhibitory activity of the inventive compounds is described below:
The in vitro assay to identify DGAT1 inhibitors uses human DGAT1 enzyme expressed in Sf9 insect cells prepared as microsomes. The reaction was initiated by the addition of the combined substrates 1,2-dioleoyl-sn-glycerol and [^14C]-palmitoyl-CoA and incubated with test compounds and microsomal membranes for 2 hours at room temperature. The assay was stopped by adding 0.5 mg wheat germ agglutinin beads in assay buffer with 1% Brij-35 and 1% 3-cholamidopropyldimethyl-ammonio-1-propane sulfonate. Plates were sealed with TopSeal and incubated for 18 hours to allow the radioactive triglyceride product to come into proximity with the bead. Plates were read on a TopCount instrument.
Percent inhibition was calculated as the percent of (test compound inhibition minus non-specific binding) relative to (total binding minus non-specific binding). IC50 values were determined by curve fitting the data to a Sigmoidal dose-response in GraphPad Prism utilizing the following equation:
Y=A+(B−A)/(1+10̂((LogIC50−X))),
where A and B are the bottom and top of the curve (highest and lowest inhibition), respectively, and X is the logarithm of concentration.

pIC50 | Compound
7.70 | O=C(O)C[C@H]1CC[C@H](c2ccc(-c3ccc4c(c3)OCCN4C(=O)Nc3ccc(F)cc3C(F)(F)F)cc2)CC1 [Example C-6, 2-((1r,4r)-4-(4-(4-(4-fluoro-2-(trifluoromethyl)phenylcarbamoyl)-3,4-dihydro-2H-benzo[b][1,4]oxazin-7-yl)phenyl)cyclohexyl)acetic acid]
7.14 | CC(C)c1ccccc1NC(=O)c1ccnc2cc(-c3ccc([C@H]4CC[C@H](CC(=O)O)CC4)cc3)ccc12 [Example C-125, 2-((1r,4r)-4-(4-(4-(2-isopropylphenylcarbamoyl)quinolin-7-yl)phenyl)cyclohexyl)acetic acid]
7.08 | O=C(O)C[C@H]1CC[C@H](c2ccc(-c3ccc4c(C(=O)Nc5ccccc5)ccnc4c3)cc2)CC1 [Example B-48, 2-((1r,4r)-4-(4-(4-(phenylcarbamoyl)quinolin-7-yl)phenyl)cyclohexyl)acetic acid]
7.15 | CCCCCCCNC(=O)N1CC(C)Oc2cc(-c3ccc([C@H]4CC[C@H](CC(=O)O)CC4)cc3)ccc21 (stereo partly shown) [Example C-116, 2-((1r,4r)-4-(4-(4-(heptylcarbamoyl)-2-methyl-3,4-dihydro-2H-benzo[b][1,4]oxazin-7-yl)phenyl)cyclohexyl)acetic acid]
7.10 | CC1CN(C(=O)Nc2ccc(F)cc2C(F)(F)F)c2ccc(-c3ccc([C@H]4CC[C@H](CC(=O)O)CC4)cc3)cc2O1 (single isomer, unassigned) [C-78 enantiomer A, 2-((1r,4r)-4-(4-(4-(4-fluoro-2-(trifluoromethyl)phenylcarbamoyl)-2-methyl-3,4-dihydro-2H-benzo[b][1,4]oxazin-7-yl)phenyl)cyclohexyl)acetic acid]
7.08 | CCCCCCCNC(=O)N1CC(CC)Oc2cc(-c3ccc([C@H]4CC[C@H](CC(=O)O)CC4)cc3)ccc21 (stereo partly shown) [Example C-150, 2-((1r,4r)-4-(4-(2-ethyl-4-(heptylcarbamoyl)-3,4-dihydro-2H-benzo[b][1,4]oxazin-7-yl)phenyl)cyclohexyl)acetic acid]
7.24 | CCc1ccccc1NC(=O)N1C[C@@H](C)Oc2cc(-c3ccc([C@H]4CC[C@H](CC(=O)O)CC4)cc3)ccc21 [C-81 enantiomer A, 2-((1r,4r)-4-(4-(4-(2-ethylphenylcarbamoyl)-2-methyl-3,4-dihydro-2H-benzo[b][1,4]oxazin-7-yl)phenyl)cyclohexyl)acetic acid]
7.82 | Cc1cc(C(=O)NCCCCc2ccccc2)c2ccc(-c3ccc([C@H]4CC[C@H](CC(=O)O)CC4)cc3)cc2n1 [Example C-141, 2-((1r,4r)-4-(4-(2-methyl-4-(4-phenylbutylcarbamoyl)quinolin-7-yl)phenyl)cyclohexyl)acetic acid]
7.37 | C[C@@H]1CN(C(=O)Nc2ccccc2)c2ccc(-c3ccc([C@H]4CC[C@H](CC(=O)O)CC4)cc3)cc2O1 [B-18 enantiomer A, 2-((1r,4r)-4-(4-(2-methyl-4-(phenylcarbamoyl)-3,4-dihydro-2H-benzo[b][1,4]oxazin-7-yl)phenyl)cyclohexyl)acetic acid]
7.03 | CCCc1ccccc1NC(=O)c1ccnc2cc(-c3ccc([C@H]4CC[C@H](CC(=O)O)CC4)cc3)ccc12 [Example C-129, 2-((1r,4r)-4-(4-(4-(2-propylphenylcarbamoyl)quinolin-7-yl)phenyl)cyclohexyl)acetic acid]
7.21 | Cc1cc(C(=O)NCCc2ccccc2)c2ccc(-c3ccc([C@H]4CC[C@H](CC(=O)O)CC4)cc3)cc2n1 [Example C-139, 2-((1r,4r)-4-(4-(2-methyl-4-(phenethylcarbamoyl)quinolin-7-yl)phenyl)cyclohexyl)acetic acid]
7.55 | Cc1cc(C(=O)Nc2ccccc2)c2ccc(-c3ccc([C@H]4CC[C@H](CC(=O)O)CC4)cc3)cc2n1 [Example C-134, 2-((1r,4r)-4-(4-(2-methyl-4-(phenylcarbamoyl)quinolin-7-yl)phenyl)cyclohexyl)acetic acid]
7.09 | CCCCCCNC(=O)N1CC(C)Oc2cc(-c3ccc([C@H]4CC[C@H](CC(=O)O)CC4)cc3)ccc21 (stereo partly shown) [Example C-113, 2-((1r,4r)-4-(4-(4-(hexylcarbamoyl)-2-methyl-3,4-dihydro-2H-benzo[b][1,4]oxazin-7-yl)phenyl)cyclohexyl)acetic acid]
